Patent US20120115804A1, “COMPOSITIONS AND METHODS FOR CHARACTERIZING AND TREATING NEOPLASIA” (The John Hopkins University, priority 2009, published 2012)
“Also recorded” adds a separate entry of the source. Where two headings read alike, the source gives them in different places.

Legend:
VDR variants = conditions: after treatment; for levels of V1 and V2 VDR variants (active transcripts): all the breast cell lines
Source text: The V1d primers, spanning exon 1d and the junction of exon 1c and exon 2, were designed to recognize the transcript variants v1d, V1d′ and v1d″ (FIG. 1). In order to detect all of these variants, the nonspecific V6 primers, spanning exon 3 and exon 4, were used.
The PCR products were separated on 2% agarose gels, scanned in a Gel Doc Imager (BioRad, Philadelphia, Pa.), and quantified using Image Quant software (BioRad, Philadelphia, Pa.).

[1] = test system: breast cancer cell lines (HS578T, 21PT, MCF7, and T47D) and the immortalized normal breast epithelial cell line HBL100; conditions: 96 hours, Calcitriol 1.5 μM, AZA 10 μM, alone or combined, five breast cell lines, vs vehicle control
Method: Cell viability was measured by MTT assay.
(§1) Human breast cell lines were obtained from American Type Culture Collection (Rockville, Md.) and propagated as described 17. For pharmacological assays, 1.0×10^6 cells were seeded in 25 cm^2 tissue culture flasks.
Cell viability was measured using the Cell Titer 96 AQ-One Solution Cell Proliferation Assay kit from Promega Corporation (Madison, Wis.). Formazan absorbance was read at 490 nm in a 96-well plate reader.

VDR mRNA = conditions: placental carcinoma cell lines; Pospechova et al. 2009; cited from earlier work
VDR promoter = conditions: 96 hours, all breast cell lines
Method: To determine whether the VDR gene promoter was hypermethylated in breast cancer, bisulfite sequencing was performed in the region 790 bp upstream to 380 bp downstream of the VDR transcription start site after treatment of cells in the presence or absence of AZA for ninety six hours (see FIG. 3).
PCR products were separated electrophoretically and isolated using a PCR purification kit (Qiagen, Valencia, Calif.). DNA was sequenced using the M13 Reverse Primer with an Applied Biosystems automated fluorescent sequencer according to the manufacturer's instructions. Percent DNA methylation was determined using the ratio of cytidine to thymidine traces at CpG dinucleotides.

VDRE containing genes = experiment: Expression of VDRE-containing genes after treatment in vitro; type: cell-based, human
Method: FIGS. 6A-6C show expression levels of VDR Response Element (VDRE)-containing genes in primary breast cancer and normal breast tissue. […] Assays were performed in triplicate on a total of 8 breast cancers and 3 normal organoid preparations. […] Means and standard deviations are shown. Significant differences between normal and cancer are indicated (* p<0.05; ** p<0.01). […] The bars represent the fold induction of VDR downstream gene targets (CYP3A4[24/25OH]-white, CYP27B1[1OH]-grey, and C/EBP-hatched) over untreated control (horizontal line=1.0). Means and standard deviations of triplicate experiments are shown (* p<0.05; ** p<0.01).

VDR = experiment: Quantitative Real-Time PCR of total VDR expression in breast cell lines; conditions: 96 hours, V primer set
Method: as §1
PCR was then performed for 40 cycles using gene-specific primers. To determine total VDR levels, pre-mixed “Assay on Demand” primer-probe sets for VDR (Hs01045843_m1) and GAPDH (Hs99999905_m1) and the GeneAmp® Fast PCR Master Mix were purchased from Applied Biosystems (Foster City, Calif.) and cDNA was amplified following the manufacturer's instructions in the ABI PRISM 7900HT instrument.

Row | Molecule | levels of V1 and V2 VDR variants (active transcripts) (VDR variants) | levels of V1 and V2 VDR variants (active transcripts) (VDR variants; listed as 5′ dAZA) | V1d and V1d′ VDR variants, response to demethylation (VDR variants; breast cell lines) | cell viability / growth inhibition [1] | VDR mRNA expression (VDR mRNA) | methylation of the CpG islands in the VDR promoter (VDR promoter) | methylation of the CpG islands in the VDR promoter (VDR promoter; listed as 5′ dAZA) | expression of VDRE containing genes (VDRE containing genes) | overall expression level of VDR (total VDR transcripts) (VDR) | cell viability / growth inhibition ([1]; listed as VTD)
1 | 5′ deoxy-azacytidine | significantly increased; also recorded: induced the re-expression | restored | less responsive | restoration of sensitivity | re-expression | induced demethylation | demethylated | concurrent increase | parallel increase | –
2 | C=C1/C(=C\C=C2/CCC[C@]3(C)[C@@H]([C@H](C)CCCC(C)(C)O)CC[C@@H]23)C[C@@H](O)C[C@@H]1O [Calcitriol, 1,25-dihydroxyvitamin D3] | – | – | – | minimal effects; also recorded: insensitivity | – | – | – | – | – | ineffective
